Test results published in ChEMBL document CHEMBL1201862, “PubChem BioAssay data set” (2004).
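1) Cells in 96-well plates. 2) Compound, 48 h, 5 concentrations. 3) Linear interpolation between surrounding doses. 4) Unreached endpoint = highest concentration. Here, GI50 denotes the concentration required for 50% inhibition of growth.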 Activity calls are given as the source filed them. No stated cut-off is given here; in the data, active = GI50 up to about 1.1 µM and inactive = higher.

What was measured:
Test in all cases: NCI tumour cell line growth inhibition, 48 h
A498 = system: A498
A549 = system: A549
CAKI-1 = system: CAKI-1
HCT-15 = system: HCT-15
HOP-62 = system: HOP-62
IGROV-1 = system: IGROV-1
MOLT-4 = system: MOLT-4
NCI-H226 = system: NCI-H226
NCI-H23 = system: NCI-H23
OVCAR-3 = system: OVCAR-3
PC-3 = system: PC-3
SF-268 = system: SF-268
SK-MEL-28 = system: SK-MEL-28
SN12C = system: SN12C
SW-620 = system: SW-620
U-251 = system: U-251
UACC-257 = system: UACC-257
UO-31 = system: UO-31
SK-MEL-2 = system: SK-MEL-2

Measured: GI50

c1ccc(-c2cs[s+]c2)cc1
inactive: A498 > 100 µM | A549 > 100 µM | CAKI-1 > 100 µM | HOP-62 > 100 µM | IGROV-1 > 100 µM | MOLT-4 26.5 µM | NCI-H226 > 100 µM | NCI-H23 > 100 µM | OVCAR-3 67 µM | PC-3 > 100 µM | SF-268 > 100 µM | SK-MEL-28 > 100 µM | SN12C > 100 µM | SW-620 49.5 µM | U-251 > 100 µM | UACC-257 > 100 µM | UO-31 > 100 µM
40.8 µM: HCT-15

CCOC(=O)Cc1nc2c(N)ncnc2n1C1OC(COC(C)=O)C(OC(C)=O)C1OC(C)=O (stereo not given)
> 100 µM: HCT-15
inactive: A498 > 100 µM | A549 > 100 µM | CAKI-1 > 100 µM | HOP-62 > 100 µM | IGROV-1 > 100 µM | MOLT-4 > 100 µM | NCI-H226 > 100 µM | NCI-H23 > 100 µM | OVCAR-3 > 100 µM | PC-3 > 100 µM | SF-268 > 100 µM | SK-MEL-28 > 100 µM | SN12C > 100 µM | SW-620 > 100 µM | U-251 > 100 µM | UACC-257 > 100 µM | UO-31 > 100 µM

COC(=O)C(Cc1c[nH]c2ccccc12)NP(=O)(O)OCC1OC(n2ccc(N)nc2=O)C(O)C1O (stereo not given)
inactive: A498 > 100 µM | A549 > 100 µM | CAKI-1 > 100 µM | HOP-62 > 100 µM | IGROV-1 > 100 µM | MOLT-4 > 100 µM | NCI-H226 > 100 µM | NCI-H23 > 100 µM | OVCAR-3 > 100 µM | PC-3 > 100 µM | SF-268 > 100 µM | SK-MEL-28 > 100 µM | SN12C > 100 µM | SW-620 > 100 µM | U-251 > 100 µM | UACC-257 > 100 µM | UO-31 > 100 µM
> 100 µM: HCT-15

[O-][n+]1onc(-c2ccccc2)c1-c1no[n+]([O-])c1-c1c(-c2ccccc2)no[n+]1[O-]
inactive: A498 13.9 µM | A549 23.1 µM | CAKI-1 12.8 µM | HOP-62 14.9 µM | IGROV-1 8.83 µM | MOLT-4 3.56 µM | NCI-H226 15.2 µM | NCI-H23 3.72 µM | OVCAR-3 5.71 µM | PC-3 2.47 µM | SF-268 12.6 µM | SK-MEL-28 33.7 µM | SN12C 7.67 µM | SW-620 4.1 µM | UACC-257 13.1 µM | UO-31 7.4 µM

COC(=O)c1cc2c(cc1C(=O)OC)[C@@]1(C)CCCC(C)(C)C1CC2 (stereo not given in full)
17.1 µM: HCT-15
inactive: A498 15.6 µM | A549 19.4 µM | HOP-62 23.8 µM | IGROV-1 10.4 µM | MOLT-4 15.1 µM | NCI-H226 17.4 µM | NCI-H23 30.5 µM | OVCAR-3 10.2 µM | PC-3 14.8 µM | SF-268 13.9 µM | SK-MEL-28 26.3 µM | SK-MEL-2 17.1 µM | SN12C 19.3 µM | SW-620 18.7 µM | U-251 18.4 µM | UACC-257 19.5 µM | UO-31 17.8 µM

COc1ccc(Cc2nc3cc(C(F)(F)F)ccc3n2C[C@@H]2CCCN3CCCCC23)cc1 (stereo not given in full)
14.2 µM: HCT-15
inactive: A498 4.4 µM | A549 9.02 µM | CAKI-1 12.6 µM | HOP-62 8.73 µM | IGROV-1 5.42 µM | MOLT-4 6.84 µM | NCI-H226 18.1 µM | NCI-H23 14.6 µM | OVCAR-3 5.77 µM | PC-3 10.6 µM | SK-MEL-28 13 µM | SK-MEL-2 15.6 µM | SN12C 7.31 µM | SW-620 21.3 µM | U-251 13.2 µM | UACC-257 2.46 µM
